Assay results reported in US20230332239A1, “METHODS OF TREATING CANCER” (ASTRAZENECA AB, priority 2019, published 2023).
Where “and” joins values, the source holds several entries; their conditions need not be identical. Equal entries are not always repeated.

Legend:
Format in all cases: in vivo, human
[1] = system: adenosine signalling signature (A2AR); assay: Phase 1A study NCT02740985: adenosine signalling signature scores in pre-dose and on-treatment tumour biopsies
Text: We scored transcriptome data with the signature using GSVA (60). This method is robust to outlying genes expressed at different orders of magnitude and generates scores amenable to downstream statistical interpretation. We observe a strong linear correlation between signatures representing immune processes/features and tumour purity in TCGA (see FIG. 7). To account for this bias we adjust the signature scores for tumour purity by fitting a linear regression derived from all samples in TCGA versus tumour purity and then applying the following correction:
Immune cell infiltrates were determined with an SVR approach based on CIBERSORT (36) to define relative immune cell abundance. To study the association of adenosine with CD8^+ T cell infiltration we consider CD8 high tumours to be greater than the median of CD8A expression across all samples. All other cell or cell-state signatures were scored using GSVA. NK cell exhaustion was determined using expression of KIR3DL1, KIR3DL2, IL2RA, IL15RA, HAVCR2 and EOMES. Cytotoxicity was determined using the expression of: NKG7, CST7, PRF1, GZMA, GZMB and IFNG. CD8 Exhaustion was determined using the signature provided in (Danaher et al. 2017). IFNG signalling was determined using the signature presented by (Ayers et al. 2017).
(§1) The first-in-human trial, NCT02740985, was conducted to assess safety, PK and pharmacodynamic activity of AZD4635 as monotherapy and in combination with durvalumab in patients with treatment refractory solid tumours. Pre-dose and on-treatment tumour biopsies were collected from 7 subjects who were treated with AZD4635 monotherapy at or below the maximum tolerated dose (MTD) of 100 mg PO daily.
Total RNA was extracted from tumour tissue macrodissected from […] thick FFPE sections using the miRNeasy FFPE Kit (QIAGEN). RNA integrity and quantity were assessed on the TapeStation 2200 using the RNA ScreenTape System (Agilent). […]
The RNA was subsequently analyzed for gene expression using the NanoString nCounter FLEX Analysis System and the commercially available 770-gene, human PanCancer Immune Profiling Panel (NanoString). […]

[2] = Phase 1A study NCT02740985: safety, maximum tolerated dose; conditions: monotherapy, PO daily, patients with treatment refractory solid tumours
Experimental: as §1

prostate cancer = assay: Progression-free survival of prostate cancer patients in phase 1A study of AZD4635, grouped by group I signature
Experimental: To derive signatures geared toward adenosine-drive prostate cancers, time-series of samples from 96 patients prostate cancer patients enrolled in the phase 1A study of AZD4635 (NCT02740985) were collected and analyzed for gene expression by using the NanoString nCounter FLEX Analysis System and the commercially available 770-gene, human PanCancer Immune Profiling Panel (NanoString). The time series was up to 120 weeks for some patients. Signatures were tested for their concordance with progression-free survival (PFS), where progression is objective disease progression (by PSA recurrence or RECIST 1.1 criteria), or death by any cause in the absence of progression. (A concordance index of 0.5 represents random chance; a concordance index of 1 represents perfect prediction.) The concordance index, in this context, is a measure of how successful a given signature is in predicting PFS; that is, if stratifying patients into ‘adenosine-low’ and ‘adenosine-high’ groups correlated with the adenosine-high group having a longer median PFS than the adenosine-low group (patients with tumors that are more strongly adenosine drive should benefit more from treatment with the A2AR antagonist AZD4635). The stronger that correlation, the greater the concordance index.

Cc1cc(-c2nnc(N)nc2-c2ccc(F)cc2)cc(Cl)n1 [AZD4635, 6-(2-chloro-6-methylpyridin-4-yl)-5-(4-fluorophenyl)-1,2,4-triazin-3-amine]
patients with reduced adenosine scores who also had increases in gene expression signatures of cytolytic activity and IFNG signalling ([1]; of the 5 patients with reduced scores, out of 7 treated): 4 patients
patients with reduced adenosine signalling scores ([1]; solid tumours, AZD4635 monotherapy once daily at or below MTD, on-treatment vs pre-dose biopsy): 5 of the 7 and 5 of 7
share of patients with reduced adenosine signalling scores ([1]; solid tumours, AZD4635 once daily, 7 patients): 70%
maximum tolerated dose (MTD) [2]: 100 mg
median PFS, adenosine-low group (prostate cancer; p=0.008 vs adenosine-high): 12 weeks
median PFS, adenosine-high group (prostate cancer; p=0.008 vs adenosine-low): 34 weeks
